The source made the active and inactive calls. No cut-off for these calls is given here.

Data set [1] is described as follows: Drug uptake in human A549 cells assessed as compound localization in ER at 0.1 uM measured after 24 hrs by ERtracker Green dye based laser confocal microscopy. Format: ADME, subcellular, Endoplasmic reticulum. The settings on record: a549, 24 h.
Data set [2] can be described thus: Drug uptake in human A549 cells assessed as compound localization in mitochondria at 0.1 uM measured after 24 hrs by Mitotracker Green FM based laser confocal microscopy. The conditions noted are these: a549, 24 h. Format: ADME.
Data set [3] deals with A549. As to the kind of experiment: Induction of apoptosis in human A549 cells assessed as apoptotic cells at 0.01 uM in presence of light irradiation incubated for 48 hrs by annexin V-FITC staining based flow cytometry. It is filed as functional. For orientation: Flow cytometry measures light scatter and fluorescence of single cells or particles in a stream.
Data set [4] in a line: Drug uptake in human A549 cells assessed as compound localization in lysosome at 0.1 uM measured after 24 hrs by Lysotracker Green DND-26 dye based laser confocal microscopy. It is filed as ADME, subcellular. The conditions noted are these: a549, 24 h.
The target of data set [5] is T1, Histone deacetylase 1 (Homo sapiens, UniProt Q13547). As to the kind of experiment: Inhibition of human recombinant HDAC1 using Ac-Leu-Gly-Lys(Ac)-AMC as substrate by measuring fluorescence intensity incubated for 30 mins by microplate reader assay.
T1 sequence (Q13547 whole entry): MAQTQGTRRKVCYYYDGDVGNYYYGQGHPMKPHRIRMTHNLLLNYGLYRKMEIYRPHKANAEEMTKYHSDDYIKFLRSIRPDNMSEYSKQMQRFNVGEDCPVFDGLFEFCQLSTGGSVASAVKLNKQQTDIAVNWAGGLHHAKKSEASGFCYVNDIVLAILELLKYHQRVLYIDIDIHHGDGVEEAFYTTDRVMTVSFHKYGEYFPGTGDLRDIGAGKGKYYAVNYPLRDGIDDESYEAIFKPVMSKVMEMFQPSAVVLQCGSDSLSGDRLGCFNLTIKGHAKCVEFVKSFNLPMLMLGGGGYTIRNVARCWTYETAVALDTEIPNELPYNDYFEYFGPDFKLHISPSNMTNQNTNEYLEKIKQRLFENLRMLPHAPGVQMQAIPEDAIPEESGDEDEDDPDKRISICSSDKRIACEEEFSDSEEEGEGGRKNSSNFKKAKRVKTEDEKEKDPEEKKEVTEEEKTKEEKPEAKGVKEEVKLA
The target of data set [6] is T1, Histone deacetylase 1. As to the kind of experiment: Inhibition of human recombinant HDAC1 in human A 549 cells assessed as effect on acetyl-H3 expression upto 2 uM measured after 24 hrs by western blot analysis. Format: cell-based. The settings on record: A549, dose microM <=2, time 24.0 hrs.
In data set [7] the target is T1, Histone deacetylase 1. Put plainly: Inhibition of human recombinant HDAC1 in human A 549 cells assessed as effect on acetyl-H4 expression measured after 24 hrs by western blot analysis. Format: cell-based. The conditions noted are these: A549, dose microM <=2, time 24.0 hrs.
For data set [8], the system named is A549. Put plainly: Dark toxicity in human A549 cells assessed as reduction in cell viability incubated under dark for 48 hrs measured after 48 hrs by CCK8 assay. It is filed as functional, cell-based. The settings on record: A549, 48 h.
A further data set has as its target Histone deacetylase 2 (Homo sapiens, UniProt Q92769). Put plainly: Inhibition of human recombinant HDAC2 using Ac-Leu-Gly-Lys(Ac)-AMC as substrate by measuring fluorescence intensity incubated for 30 mins by microplate reader assay.
Data set [9] can be described thus: Drug uptake in human A549 cells after 24 hrs by fluorescence spectrophotometer analysis relative to tala-porfin. Format: ADME, cell-based. The conditions noted are these: a549, 24 h.
Data set [10] deals with A549. As to the kind of experiment: Induction of apoptosis in human A549 cells assessed as apoptotic cells at 0.1 uM in presence of light irradiation incubated for 48 hrs by annexin V-FITC staining based flow cytometry. Format: functional.
In a further data set the target is Histone deacetylase 3 (Homo sapiens, UniProt O15379). Put plainly: Inhibition of human recombinant HDAC3 using Ac-Leu-Gly-Lys(Ac)-AMC as substrate by measuring fluorescence intensity incubated for 30 mins by microplate reader assay.
Histone deacetylase 3, sequence (O15379 whole entry): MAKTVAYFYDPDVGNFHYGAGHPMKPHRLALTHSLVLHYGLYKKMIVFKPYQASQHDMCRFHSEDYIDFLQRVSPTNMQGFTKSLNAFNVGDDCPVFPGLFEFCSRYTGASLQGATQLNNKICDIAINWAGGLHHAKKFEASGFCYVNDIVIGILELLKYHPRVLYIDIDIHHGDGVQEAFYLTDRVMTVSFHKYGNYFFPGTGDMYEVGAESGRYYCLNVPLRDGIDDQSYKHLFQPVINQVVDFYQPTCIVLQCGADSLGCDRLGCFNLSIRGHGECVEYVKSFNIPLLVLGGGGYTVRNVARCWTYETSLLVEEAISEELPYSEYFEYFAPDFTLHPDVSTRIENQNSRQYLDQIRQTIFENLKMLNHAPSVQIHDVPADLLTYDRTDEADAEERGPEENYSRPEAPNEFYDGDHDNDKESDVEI
The nature of data set [11]: Drug uptake in human A549 cells assessed as compound localization in golgi at 0.1 uM measured after 24 hrs by Golgi tracker Green dye based laser confocal microscopy. Format: ADME, subcellular, Golgi body. The conditions noted are these: a549, 24 h.
In data set [12] the test system is A549. As to the kind of experiment: Induction of apoptosis in human A549 cells assessed as necrotic cells at 0.5 uM in absence of light irradiation incubated for 48 hrs by annexin V-FITC staining based flow cytometry. It is filed as functional.
A further data set concerns HCT-116. As to the kind of experiment: Dark toxicity in human HCT-116 cells assessed as reduction in cell viability incubated under dark for 48 hrs measured after 48 hrs by CCK8 assay. The conditions noted are these: HCT-116, 48 h. Format: functional, cell-based. Background: Tetrazolium dyes change colour on reduction, which living cells bring about.
The test system of data set [13] is A549. Put plainly: Induction of apoptosis in human A549 cells assessed as apoptotic cells at 0.5 uM in absence of light irradiation incubated for 48 hrs by annexin V-FITC staining based flow cytometry. It is filed as functional.
For data set [14], the target named is T2, Polyamine deacetylase HDAC10 (Homo sapiens, UniProt Q969S8).
T2 sequence (Q969S8 whole entry): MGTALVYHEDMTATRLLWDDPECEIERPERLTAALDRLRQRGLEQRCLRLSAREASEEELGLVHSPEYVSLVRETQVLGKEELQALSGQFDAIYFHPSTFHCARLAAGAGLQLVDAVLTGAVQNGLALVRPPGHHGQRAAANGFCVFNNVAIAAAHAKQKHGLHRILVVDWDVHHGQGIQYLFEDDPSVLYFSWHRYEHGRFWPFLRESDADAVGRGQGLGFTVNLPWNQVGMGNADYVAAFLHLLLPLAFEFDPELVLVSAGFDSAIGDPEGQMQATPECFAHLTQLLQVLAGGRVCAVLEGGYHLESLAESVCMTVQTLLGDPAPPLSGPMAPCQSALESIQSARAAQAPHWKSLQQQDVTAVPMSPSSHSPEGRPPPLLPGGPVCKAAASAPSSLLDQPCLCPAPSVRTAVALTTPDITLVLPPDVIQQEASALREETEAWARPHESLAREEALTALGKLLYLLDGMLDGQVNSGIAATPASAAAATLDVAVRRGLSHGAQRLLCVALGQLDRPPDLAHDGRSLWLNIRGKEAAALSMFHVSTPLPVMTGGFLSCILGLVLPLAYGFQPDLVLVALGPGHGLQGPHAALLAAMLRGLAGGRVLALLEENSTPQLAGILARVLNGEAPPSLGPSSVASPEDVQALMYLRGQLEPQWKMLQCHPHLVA
Put plainly: Inhibition of human recombinant HDAC10 using Ac-Leu-Gly-Lys(Ac)-AMC as substrate by measuring fluorescence intensity incubated for 30 mins by microplate reader assay.

Data set [15] has as its system A549. As to the kind of experiment: Induction of autophagy in human A549 cells irradiated 10 j/cm2 at 0.1 uM after 24 hrs using fluorescent molecule DAPRed. It is filed as functional.
For data set [16], the system named is A549. Put plainly: Induction of reactive oxygen species generation in human A549 cells assessed as mean count value at 0.05 uM incubated for 24 hrs by DCFH-DA staining based fluorescence microscopy assay. Format: functional.
Data set [17] has as its system A549. As to the kind of experiment: Phototoxicity in human A549 cells assessed as reduction in cell viability irradiated 10 j/cm2 for 24 hrs followed by incubated for 24 hrs by CCK8 assay. It is filed as functional, cell-based. The settings on record: A549, light or radiation study.

Histone deacetylase 2, sequence (Q92769 whole entry): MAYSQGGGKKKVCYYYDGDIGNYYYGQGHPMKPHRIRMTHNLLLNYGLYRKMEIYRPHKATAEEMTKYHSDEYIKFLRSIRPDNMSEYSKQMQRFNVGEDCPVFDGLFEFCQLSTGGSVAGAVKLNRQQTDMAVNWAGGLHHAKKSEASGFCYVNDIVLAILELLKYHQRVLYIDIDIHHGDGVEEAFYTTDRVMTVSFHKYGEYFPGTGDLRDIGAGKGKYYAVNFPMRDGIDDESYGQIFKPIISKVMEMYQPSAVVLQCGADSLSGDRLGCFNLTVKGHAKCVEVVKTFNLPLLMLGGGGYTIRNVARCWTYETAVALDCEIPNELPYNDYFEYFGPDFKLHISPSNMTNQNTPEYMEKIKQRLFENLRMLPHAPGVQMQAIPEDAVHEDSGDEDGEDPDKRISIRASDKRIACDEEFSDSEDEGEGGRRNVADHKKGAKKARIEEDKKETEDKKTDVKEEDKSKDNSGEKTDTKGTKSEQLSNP

Take `C=Cc1c(C)c2cc3nc(c(C(=O)OC)c4[nH]c(cc5nc(cc1[nH]2)C(C)=C5CC)c(C)c4C(=O)OC)[C@@H](CCC(=O)Nc1ccc(C(=O)Nc2ccccc2N)cc1)[C@@H]3C`: the Drug uptake entry in [1], in data set [2], in data set [4] and in data set [11] was “Active” in each case. The Activity in the data set with A549 [3] was determined as 27.32%; in the data set on A549 [10], 90.77%; with A549 [12] it was 45.22%; in the data set on A549 [13] it was 54.74%; in the data set on A549 [16] it was 1760.9. The IC50 at Histone deacetylase 1 [5] was 27000 nM; with A549 [8] it was 300 nM; at Histone deacetylase 2 it was 2650 nM; at Histone deacetylase 3, 72100 nM; in the data set on HCT-116, 2790 nM; in data set [14] it was greater than 100000 nM. In the data set with A549 [17], the half-maximal inhibitory concentration (IC50) stood at 60 nM. Moreover, the inhibition entry at Histone deacetylase 1 [6] was “inactive”. The inhibition result at Histone deacetylase 1 [7] is “Dose-Dependent Effect”. For the same compound, the “fold change (FC)” value in data set [9] was 9. In the data set on A549 [15], the result was Active.

Usually IC50 stands for the concentration needed to halve the response being measured.

The values above are taken from ChEMBL document CHEMBL4814003, “Novel dual-mode antitumor chlorin-based derivatives as potent photosensitizers and histone deacetylase inhibitors for photodynamic therapy and chemotherapy” (Eur J Med Chem, 2021).
